Read-outs that look alike come from different tables or passages of the source.

The nature of series [1]: Plasma lovastatin by mass spectroscopy, fracture Experiment 2. Format: in vivo. Conditions: rat, 3 hrs after the last dose, read-out: Plasma lovastatin level. As for the experimental part: Plasma was taken from the rats 3 hrs after the last dose and the lovastatin was measured by mass spectroscopy. […] Effective plasma levels from transdermal administration is on the order of 2-3 ng/ml.

The test system of a further series is femur fracture model. The source says: In accordance with the study, the clinical focus involves creating uniform and reproducible fracture defects utilizing a pinned closed transverse rat femoral model chosen because it has been well defined and fully characterized by mechanical and histologic methods. Advantages of this model include reproducibility, defect uniformity, and a rapid 5 weeks to clinical union healing phase. The properties of the bioactive coating are investigated in preliminary studies in vitro and in vivo using the explanted calvarial culture and the local calvarial injection model including drug-release kinetics, degradation and stability. The aims of the study are: (1) to evaluate the effect of controlled-released locally administered lovastatin on callus formation, progression and fracture healing using X-ray analysis of fracture healing. At the end of the experiment, the fractured limb will be excised and X-rayed after removal of stabilizing pins. These X-rays will be assessed for evidence of healing of the fracture. They will be scored by 3 independent observers for healing of the fracture; (2) to evaluate the effect of controlled released lovastatin on biomechanical parameters by three-point bending and micro computer tomography (uCT); and (3) to evaluate by uCT bone microarchitecture at callus site and bone healing. […]

Series [2] can be described thus: Plasma lovastatin by mass spectroscopy after local nanobeads. Format: in vivo, rat. The conditions noted are these: any of the dosed groups, end of the experiment. How it is done:
Plasma was taken from the rats 3 hrs after the last dose and the lovastatin was measured by mass spectroscopy.

Series [3] in a line: Serum liver and muscle enzymes (ALT, AST, AP, LDH, CPK) and myotoxicity after dermal lovastatin. The conditions noted are these: for ALT / AP / AST / CPK / LDH: end of 5 day treatment. As for the experimental part: (§1) Blood samples were obtained at the end of the five day treatment for determination of liver and muscle enzymes (alanine aminotransferase (ALT), aspartate aminotransferase (AST), alkaline phosphatase (AP), and lactic dehydrogenase (LDH) by radioimmunoassays (Esoterix, San Antonio, Tex.). Kinetic quantitative determination of […] (CPK) in serum was estimated using a kit from Stanbio Laboratory (Boerne, Tex.). The concentration of osteocalcin was measured using a sandwich ELISA assay supplied by from Biomedical Technologies Inc.
Three-month old virgin female Sprague Dawley rats were purchased from Harlan Laboratories, LTD (Indianapolis, Ind.). Experiments were performed using either intact, bilaterally ovariectomized (OVX) or sham-operated (SHAM) rats with treatment starting 5 days after surgery in the latter groups. Rats were weight-matched and divided into treatment groups (n=10). Compounds were administered by daily transdermal application for 5 days only or 5 days/week for 5 weeks when specified. Animals were pair-fed throughout the experimental period and weekly body weights determined and dosage adjusted accordingly. At the completion of the experiment, animals were anesthetized with a ketamine (10 mg/ml) at a dose of 100 mg/kg body weight and euthanized by cervical dislocation.

The test system of the next series is osteocalcin. Description: Serum osteocalcin (sandwich ELISA) in OVX rats. Format: in vivo, rat. The conditions noted are these: dermal gel 0.01 mg/kg/day for 5 days, day 26. How it is done: as §1
Setting [4] is: dermal, hydrophilic petrolatum, 1 mg/kg/day.
The mark [5] stands for this setting: dermal, hydrophilic petrolatum, 5 mg/kg/day.

As for `CC[C@H](C)C(=O)O[C@H]1C[C@@H](C)C=C2C=C[C@H](C)[C@H](CC[C@@H]3C[C@@H](O)CC(=O)O3)[C@H]21` [lovastatin], the concentration at 3 h in series [1] (oral 5 mg/kg/day) came to 10 ng/mL. The concentration at 3 h in series [1] (topical, transdermal 0.1 and 1 mg/kg/day) fell in the range of 2 to 3 ng/mL. In the series on femur fracture model (released from nanobeads at fracture site), the “Lowest lovastatin amount tested giving a significant increase in radiographic score” value came out at 0.2 µg/day. Also, the “Lovastatin release giving maximum radiographic score” value with femur fracture model (single injection of nanobeads at fracture site, 2 weeks) came out at 1.5 µg/day. The Plasma lovastatin entry in series [2] is reported as “undetectable”. Besides, the “Change in liver and muscle skeletal tissue enzymes (AST, ALT, AP, LDH, CPK)” value in series [3] (dermal, aqueous alkanolic gel, 0.01 to 0.5 mg/kg/day, end of treatment, sham/ovx rats) is “No significant changes”. In series [3] (setting [4]), this compound displayed an ALT of 55 ± 3 μ/L, an AP of 123 ± 6 μ/L, an AST of 110 ± 4 μ/L and a CPK of 441 ± 61 μ/L. The same compound yielded an LDH in series [3] (setting [4]) of 349 ± 47 μ/L. In series [3] (setting [5]), this compound showed an ALT of 57 ± 2 μ/L, an AP of 115 ± 5 μ/L, an AST of 128 ± 7 μ/L and a CPK of 578 ± 45 μ/L. In series [3] (setting [5]), this compound had an LDH of 528 ± 67 μ/L. Moreover, the “Change in liver and muscle enzymes (ALT, AST, AP, LDH, CPK) vs vehicle” value in series [3] (dermal, hydrophilic petrolatum, 1 and 5 mg/kg/day, 5 days) was “No changes”. For the same compound, the “Serum creatine protein kinase (CPK), treated groups vs control” value in series [3] (hydroalcoholic gel, 5 days, sham and ovx rats) is on record as “No significant changes”. Moreover, the “Non-myotoxic dose (50 mg/kg/day) relative to effective dose (0.01 mg/kg)” value in series [3] (transdermal) is listed as 5000 fold. In addition, the “Myotoxicity by CPK measurements and morphologic examination of skeletal muscles” value in series [3] (transdermal, doses up to 50 mg/kg/day) is “not observed”. The Serum osteocalcin levels result with osteocalcin was “significant increase in osteocalcin levels”.

The values above are taken from patent publication US20090181098A1, “Hmg-Co-a Reductase Inhibitor Enhancement of Bone and Cartilage” (OsteoScreen IP, LLC, priority 2006, published 2009).
